# In patent US20210181182A1, “METHOD FOR IDENTIFICATION OF PERTURBAGENS OF PARTICULAR BIOLOGICAL PROCESSES AND CELL SYSTEMS WITHIN LIVING CELLS” (priority 2018, published 2021):
# Structures can show the parent of a compound that is named as a salt. Where two headings read alike, the source gives them in different places. Marks after values point to notes of the source that are not given here.
# Columns and labels:
# [1] = test system: Akt kinase; test: FACTORIAL assay: similarity of TFAP to the invariant signature of Akt inhibitors; type: cell-based, human; conditions: for retrieved by querying the TFAP database with the invariant signature for AKT inhibitors: database of over 30,000 signatures
# [2] = test system: mitochondria membrane potential; conditions: cited from earlier work
# [3] = test system: mitochondrial electron transport chain (mETC); test: FACTORIAL assay: similarity of TFAP to the consensus (invariant) mETC TFAP; type: cell-based, human
# [4] = test system: HepG2 cells; test: FACTORIAL assay: transition of the TFAP signature of glitazones with concentration; type: cell-based, human; conditions: HepG2, 24-hour treatment
# [5] = test system: HDAC; test: FACTORIAL assay: similarity of TFAP to the consensus HDAC inhibitor TFAP; type: cell-based, human; conditions: for retrieved by querying the Attagene dataset with the HDAC TFAP: HepG2, ToxCast TFAP dataset
# [6] = test system: DNA damage; test: FACTORIAL assay: weak / strong DNA damage TFAP clusters; type: cell-based, human; conditions: HepG2, 24 h, all tested concentrations
# [7] = HepG2, 1-hour incubation at concentrations below 60 μM
# [8] = HepG2, 24 h incubation, each value at the concentration [uM]
Compound,"MMP assay hitCall [2, 7]",also measured
C[S+](C)[O-] [DMSO],,retrieved by querying the TFAP database with the invariant signature for AKT inhibitors [1]: retrieved
CO/C=C(/C(=O)OC)c1ccccc1Oc1cc(Oc2ccccc2C#N)ncn1 [Azoxystrobin],0*,"Pearson correlation with the mETC TFAP, r [3, 8]: 0.894"
Oc1ccc(Cc2ccc(O)cc2)cc1 [Bisphenol F],1,"Pearson correlation with the mETC TFAP, r [3, 8]: 0.835"
COC(=O)N(C(=O)N1CO[C@@]2(C(=O)OC)Cc3cc(Cl)ccc3C2=N1)c1ccc(OC(F)(F)F)cc1 [Indoxacarb],1,"Pearson correlation with the mETC TFAP, r [3, 8]: 0.887"
CCc1ccc(CCOc2ccc(CC3SC(=O)NC3=O)cc2)nc1 (centres unmarked) [pioglitazone],,concentration of transformation of primary TFAP into secondary TFAP (threshold for off-target effects) [4]: 180 µM
Cc1cc(C)c(C2=C(OC(=O)CC(C)(C)C)C3(CCCC3)OC2=O)c(C)c1 [Spiromesifen],1,"Pearson correlation with the mETC TFAP, r [3, 8]: 0.816"
O.O.O.O.[Na+].[O-]c1ccccc1-c1ccccc1 [Sodium 2-phenylphenate tetrahydrate],1,"Pearson correlation with the mETC TFAP, r [3, 8]: 0.807"
Cn1nccc1Nc1nccc(-c2ccn([C@H](CO)c3ccc(Cl)c(F)c3)c(=O)c2)n1 [GDC-0994],,"signature match at higher concentrations (HDAC inhibitors) ([5]; HepG2, 24 h, above 2.2 uM): matched the invariant signature of HDAC inhibitors"
O=c1[nH]c(=O)n([C@H]2C[C@H](O)[C@@H](CO)O2)cc1F [floxuridine],,DNA damage TFAP elicited (weak or strong damage cluster) [6]: only the weak damage TFAP
"NC(=O)N/N=C/c1ccc([N+](=O)[O-])o1 [Nitrofurazone, reference compound]",0*,"Pearson correlation with the mETC TFAP, r ([3]; 24 h): 0.856"
"Nc1c2c(nc3ccccc13)CCCC2 [Tacrine, reference compound]",0*,"Pearson correlation with the mETC TFAP, r ([3]; 24 h): 0.810"
COP(=O)(OC)O/C(=C\Cl)c1cc(Cl)c(Cl)cc1Cl [Z-Tetrachlorvinphos],1,"Pearson correlation with the mETC TFAP, r [3, 8]: 0.892"
CCOC(=O)[C@@H](C)Oc1ccc(Oc2nc3ccc(Cl)cc3o2)cc1 [Fenoxaprop-P-ethyl],0,"Pearson correlation with the mETC TFAP, r [3, 8]: 0.827"
Dinocap,1,"Pearson correlation with the mETC TFAP, r [3, 8]: 0.897"
"CC(C)NC[C@@H](C(=O)N1CCN(c2ncnc3c2[C@H](C)C[C@H]3O)CC1)c1ccc(Cl)cc1 [GDC-0068, Ipatasertib, reference compound]",,similarity r to the invariant signature of AKT inhibitors [1]: > 0.80
"CC/C(=C(/CC)c1ccc(O)cc1)c1ccc(O)cc1 [Diethylstilbestrol, reference compound]",1,"Pearson correlation with the mETC TFAP, r ([3]; 24 h): 0.812"
Chlorpyrifos oxon,1,"Pearson correlation with the mETC TFAP, r [3, 8]: 0.827"
CC(/C=C/C(=O)NO)=C\[C@@H](C)C(=O)c1ccc(N(C)C)cc1 [trychostatin],,retrieved by querying the Attagene dataset with the HDAC TFAP [5]: retrieved
COC(=O)Nc1ccc(Cl)c(Cl)c1 [Swep],1,"Pearson correlation with the mETC TFAP, r [3, 8]: 0.927"
"O=S(=O)(c1ccc(Cl)cc1)c1ccc(Cl)cc1 [4,4′-Dichlorodiphenyl sulfone]",1,"Pearson correlation with the mETC TFAP, r [3, 8]: 0.810"
COP(=S)(OC)SCn1nnc2ccccc2c1=O [Azinphos-methyl],0*,"Pearson correlation with the mETC TFAP, r [3, 8]: 0.823"
Mancozeb,0*,"Pearson correlation with the mETC TFAP, r [3, 8]: 0.867"
O=c1[nH]cc(F)c(=O)[nH]1 [5-fluorouracil],,DNA damage TFAP elicited (weak or strong damage cluster) [6]: only the weak damage TFAP
CCCCC(CC)COP(=O)(O)OCC(CC)CCCC (centres unmarked) [Bis(2-ethylhexyl) phosphate],1,"Pearson correlation with the mETC TFAP, r [3, 8]: 0.838"

Compound,"MMP assay hitCall [2, 7]",also measured
CCO [ethanol],,retrieved by querying the TFAP database with the invariant signature for AKT inhibitors [1]: retrieved
CCN(CC)c1ccc2c(-c3ccccc3C(=O)O)c3ccc(=[N+](CC)CC)cc-3oc2c1.[Cl-] [Rhodamine B],0,"Pearson correlation with the mETC TFAP, r [3, 8]: 0.810"
CCc1cc(Cc2cc(CC)cc(C(C)(C)C)c2O)c(O)c(C(C)(C)C)c1,1,"Pearson correlation with the mETC TFAP, r [3, 8]: 0.827"
CC(C)C(=O)O [isobutyric acid],,retrieved by querying the Attagene dataset with the HDAC TFAP [5]: retrieved
CO/C=C(/C(=O)OC)c1ccccc1COc1cccc(C(F)(F)F)n1 [Picoxystrobin],1,"Pearson correlation with the mETC TFAP, r [3, 8]: 0.885"
"CC(C)(C)c1cc([N+](=O)[O-])cc(C(C)(C)C)c1O [2,6-Di-tert-butyl-4-nitrophenol]",1,
Cc1ccc(-c2c(Cl)nc(C#N)n2S(=O)(=O)N(C)C)cc1 [Cyazofamid],1,
CC(C)(C)C(O)C(Oc1ccc(Cl)cc1)n1cncn1 (centres unmarked) [Triadimenol],0,
COc1cc(C)ccc1O [2-Methoxy-4-methylphenol],0,
CO[C@@H]1[C@H](OC(=O)NC(=O)CCl)CC[C@]2(CO2)[C@H]1[C@@]1(C)O[C@@H]1CC=C(C)C [TNP-470],0,
"CC(=O)N1CCN(c2ccc(OCC3COC(Cn4ccnc4)(c4ccc(Cl)cc4Cl)O3)cc2)CC1 (centres unmarked) [Ketoconazole, reference compound]",1,
"O=P(OCC(Br)CBr)(OCC(Br)CBr)OCC(Br)CBr (centres unmarked) [Tris(2,3-dibromopropyl) phosphate]",,MMP assay hitCall [2]: 1
O=C(Nc1ccccc1)Nc1ccnc(Cl)c1 [Forchlorfenuron],1,
O=P(Oc1ccccc1)(Oc1ccccc1)Oc1ccccc1 [Triphenyl phosphate],1,
C[C@@]1(c2ccc(Oc3ccccc3)cc2)OC(=O)N(Nc2ccccc2)C1=O (racemic) [Famoxadone],1,
CCC(C)(c1ccc(O)cc1)c1ccc(O)cc1 [Bisphenol B],1,"Pearson correlation with the mETC TFAP, r [3, 8]: 0.861"
"Fc1ccc([C@@H]2CCNC[C@H]2COc2ccc3c(c2)OCO3)cc1 [paroxetine, reference compound]",,retrieved by querying the TFAP database with the invariant signature for AKT inhibitors [1]: retrieved
Oc1c(Cl)c(Cl)c(Cl)c(Cl)c1Cl [Pentachlorophenol],1,
c1cc(OCC2CO2)ccc1Cc1ccc(OCC2CO2)cc1 (centres unmarked) [Bis[4-(glycidyloxy)phenyl]methane],0,
O=c1c(O)c(-c2ccc(O)cc2)oc2cc(O)cc(O)c12 [Kaempferol],1,
CN(C)NC(=O)CCC(=O)O [Daminozide],,MMP assay hitCall [2]: 0
C=CC(=O)OCCOCCOCC [2-(2-Ethoxyethoxy)ethyl prop-2-enoate],0,
CCOc1cc(Oc2ccc(C(F)(F)F)cc2Cl)ccc1[N+](=O)[O-] [Oxyfluorfen],1,
C#CCC1=C(C)C(OC(=O)C2C(C=C(C)C)C2(C)C)CC1=O (centres unmarked) [Prallethrin],1,

Compound,"MMP assay hitCall [2, 7]",also measured
CCC(C)c1cc([N+](=O)[O-])cc([N+](=O)[O-])c1O (centres unmarked) [Dinoseb],1,
COC(=O)NC(=S)Nc1ccccc1NC(=S)NC(=O)OC [Thiophanate-methyl],0*,
"Nc1ccc(-c2ccc(N)c(N)c2)cc1N [3,3′-Diaminobenzidine]",,MMP assay hitCall [2]: 1
Bisphenol A glycidyl methacrylate,1,"Pearson correlation with the mETC TFAP, r [3, 8]: 0.939"
c1ccc(Nc2ccccc2)cc1 [Diphenylamine],1,
"CN(C)c1ccc(C(=N)c2ccc(N(C)C)cc2)cc1 [auramine, auramine O]",,DNA damage TFAP elicited (weak or strong damage cluster) [6]: only the strong damage TFAP
CCOC(=O)Nc1cccc(OC(=O)Nc2ccccc2)c1 [Desmedipham],1,
"Cc1ccc(-c2cc(C(F)(F)F)nn2-c2ccc(S(N)(=O)=O)cc2)cc1 [Celecoxib, reference compound]",,"Pearson correlation with the mETC TFAP, r ([3]; 24 h): 0.883"
"CN(C)CCCN1c2ccccc2CCc2ccc(Cl)cc21 [Clomipramine hydrochloride, reference compound]",0*,"Pearson correlation with the mETC TFAP, r ([3]; 24 h): 0.806"
O=C(NC(=O)c1c(F)cccc1F)Nc1ccc(OC(F)(F)C(F)OC(F)(F)F)c(Cl)c1 (centres unmarked) [Novaluron],0,
CN1CSC(=S)N(C)C1 [Dazomet],0,
CON(C)C(=O)Nc1ccc(Cl)c(Cl)c1 [Linuron],1,
CCOC(=O)CC(SP(=S)(OC)OC)C(=O)OCC (centres unmarked) [Malathion],0*,
COC(=O)/C=C(\C)CCC=C(C)C [Methyl geranate],0,
C#CCOS(=O)OC1CCCCC1Oc1ccc(C(C)(C)C)cc1 (centres unmarked) [Propargite],1,
CCCCCCCCCCCC[N+](C)(C)Cc1ccccc1.[Cl-] [Benzyldimethyldodecylammonium chloride],1,
CCc1cccc(C)c1N(C(=O)CCl)[C@@H](C)COC [S-Metolachlor],0,"Pearson correlation with the mETC TFAP, r [3, 8]: 0.856"
CSC1=N[C@@](C)(c2ccccc2)C(=O)N1Nc1ccccc1 [Fenamidone],1,
CCOC(=O)/C=C\C(=O)OCC [Diethyl maleate],0*,
COP(=O)(OC)OC=C(Cl)Cl [Dichlorvos],0*,
"CC(C)(C)c1ccc(CSc2cnn(C(C)(C)C)c(=O)c2Cl)cc1 [Pyridaben, reference compound]",1,
Oc1ccc(C(c2ccc(O)cc2)(C(F)(F)F)C(F)(F)F)cc1 [Bisphenol AF],,MMP assay hitCall [2]: 1
CC1COC(Cn2cncn2)(c2ccc(Oc3ccc(Cl)cc3)cc2Cl)O1 (centres unmarked) [Difenoconazole],1,
